Consider 13 molecules from PubChem BioAssay (NCI).

Holding throughout (experiment): NCI anticancer screen, dose series, 48 h
The subject of assay [1] is BT-549 breast.
Assay [2] has as its system OVCAR-3 ovarian.
For assay [3], the system named is SK-MEL-2 melanoma.
Assay [4] deals with RXF 393 renal.
Assay [5] relates to MCF7 breast.
Assay [6] concerns UO-31 renal.
Assay [7] concerns SNB-19 CNS.
Assay [8] relates to OVCAR-8 ovarian.
Assay [9] has as its system MDA-MB-435.
The test system of assay [10] is RPMI-8226 leukemia.

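Step 1: Grow cells in 96-well plates. Step 2: Expose to compound for 48 hours at 5 concentrations. Step 3: Interpolate endpoints linearly; if unreached, use highest concentration. TGI: concentration producing complete growth inhibition.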

On to `COc1cc2c(cc1OCCN1CCN(CCOc3cc4c(cc3OC)C(=O)N3CCC[C@H]3C=N4)CC1)N=C[C@@H]1CCCN1C2=O`, for which the TGI in assay [1] is greater than 79.1 µM; in [2] it was 66.8 µM; in assay [3], 58.7 µM; in [4] it was 56.3 µM; in assay [5], greater than 100 µM; in assay [6] it was greater than 73.7 µM. Moreover, the TGI in [7] was greater than 100 µM; in [8], greater than 100 µM; in assay [9], 64.2 µM; in [10], 15.4 µM.
Consider `Nc1ccc2c3c1cccc3c(=O)n1c3ccc(Cc4ccc5c(c4)nc4c6ccc(N)c7cccc(c(=O)n54)c76)cc3nc21`, for which the TGI in [1], in [2], in [3], in assay [4], in assay [5] and in assay [6] was greater than 100 µM each time. Moreover, the TGI in assay [7], in assay [8], in assay [9] and in assay [10] was greater than 100 µM throughout.
On to `CC1=NN(C(=O)CC(=O)Nc2cccc(C)c2)C(=O)C1N=Nc1ccc(C(=O)O)cc1` (stereo not given), for which the TGI in [1], in assay [2], in assay [3], in [4], in assay [5] and in assay [6] was greater than 100 µM in each case. Further, the TGI in assay [7], in assay [8], in assay [9] and in assay [10] was greater than 100 µM throughout.
As to `CCOC(=O)CC1C(C(=O)OCC)=Cn2c([nH]c3cccc4cccc2c43)=C1C(=O)OCC` (stereo not given), the TGI in assay [1], in assay [2], in [3], in assay [4], in [5] and in assay [6] was greater than 100 µM in each case. For the same molecule, the TGI in assay [7], in [8], in assay [9] and in assay [10] was greater than 100 µM in each case.
Consider `CC1CC(C)(C)CC(OCCN2CCCCC2)(c2ccccc2)C1` (stereo not given), for which the TGI is 27.8 µM in assay [1]; 22.5 µM in assay [2]; 33.4 µM in assay [3]; 23.8 µM in assay [4]; 26.4 µM in assay [5]; 20.6 µM in assay [6]. Moreover, the TGI is 26.7 µM in assay [7], 30.3 µM in assay [8], 24.7 µM in assay [9] and 20.3 µM in assay [10].
On to `N#Cc1cc2c(n(C3OC(CO)C(O)C(O)C3O)c1=S)CCC2` (stereo not given), for which the TGI in assay [1], in assay [2], in assay [3], in [4], in assay [5] and in [6] was greater than 100 µM each time. For the same molecule, the TGI in assay [7], in [8], in assay [9] and in assay [10] was greater than 100 µM each time.
Take `COc1ccccc1-c1cc(=O)c2cccnc2[nH]1`: the TGI in [1], in [2], in [3], in assay [4], in [5] and in assay [6] was greater than 100 µM each time. The TGI in assay [7] was greater than 100 µM; in assay [8], greater than 100 µM; in assay [9], 60.5 µM; in assay [10], greater than 100 µM.
Take `C=C(C)C1CCC2(C)C1CCC1(C)C2CCC2C3(C)C4OC(OC4=O)C(C)(C)C3CCC21C` (stereo not given): the TGI in assay [1], in [2], in assay [3], in assay [4], in [5] and in [6] was greater than 100 µM each time. The TGI in assay [7], in assay [8], in [9] and in assay [10] was greater than 100 µM in each case.
As for `CC(C)(C)c1cc(C(C)(C)C)c2sc(=O)oc2c1O`, the TGI in assay [1] worked out at 32.9 µM; in [2], 25.9 µM; in [3] it was 29.1 µM; in assay [4] it was 26.3 µM; in [5], 28 µM; in assay [6], 23.8 µM. The TGI is 32.2 µM in assay [7], 31.2 µM in assay [8], 25.6 µM in assay [9] and greater than 100 µM in [10].
`O=C(CCCCCCCCC(=O)N1C(=O)CC(=O)N(c2ccc(Cl)cc2)C1=S)N1C(=O)CC(=O)N(c2ccc(Cl)cc2)C1=S`: the TGI in assay [1], in [2], in assay [3], in assay [4], in [5] and in assay [6] was greater than 100 µM throughout. Further, the TGI in [7], in assay [8], in [9] and in assay [10] was greater than 100 µM throughout.
On to `CC(C)NC(=O)OCCN=C1c2ccccc2C(Br)C(Br)c2ccccc21` (stereo not given), for which the TGI in assay [1] is 29.3 µM; in [2], 35.6 µM; in assay [3], greater than 54.1 µM; in assay [4] it was 6.66 µM; in [5], 28.2 µM; in [6], 8.97 µM. For the same molecule, the TGI was 43.3 µM in assay [7], 24.8 µM in assay [8], 27.2 µM in assay [9] and 23.1 µM in [10].
For `COc1cc2c(cc1OC)C(C1CC1)ON(C)CC2` (stereo not given), the TGI in assay [1], in [2], in assay [3], in assay [4], in assay [5] and in assay [6] was greater than 100 µM each time. Further, the TGI in assay [7], in [8], in assay [9] and in [10] was greater than 100 µM in each case.
In the case of `COc1cc2ccc(C(C)NCC#N)cc2cc1OC` (stereo not given), the TGI in assay [1], in assay [2], in assay [3], in assay [4], in assay [5] and in assay [6] was greater than 100 µM each time. For the same molecule, the TGI in [7], in [8], in assay [9] and in assay [10] was greater than 100 µM throughout.
